What was measured:
MATE2K = MATE2K (Homo sapiens, UniProt Q86VL8); assay: In vitro transporter inhibition: MATE2K; format: in vitro ADME; conditions: data on file at Gilead Sciences, Inc.
Safety assessments = format: in vivo, human; conditions: for subjects with at least one graded laboratory abnormality: majority grade 1 or 2
MATE1 = molecular target: T1, MATE1 (Homo sapiens, UniProt Q96FL8); conditions: in vitro; cited from earlier work
T1 sequence (Q96FL8 1-570): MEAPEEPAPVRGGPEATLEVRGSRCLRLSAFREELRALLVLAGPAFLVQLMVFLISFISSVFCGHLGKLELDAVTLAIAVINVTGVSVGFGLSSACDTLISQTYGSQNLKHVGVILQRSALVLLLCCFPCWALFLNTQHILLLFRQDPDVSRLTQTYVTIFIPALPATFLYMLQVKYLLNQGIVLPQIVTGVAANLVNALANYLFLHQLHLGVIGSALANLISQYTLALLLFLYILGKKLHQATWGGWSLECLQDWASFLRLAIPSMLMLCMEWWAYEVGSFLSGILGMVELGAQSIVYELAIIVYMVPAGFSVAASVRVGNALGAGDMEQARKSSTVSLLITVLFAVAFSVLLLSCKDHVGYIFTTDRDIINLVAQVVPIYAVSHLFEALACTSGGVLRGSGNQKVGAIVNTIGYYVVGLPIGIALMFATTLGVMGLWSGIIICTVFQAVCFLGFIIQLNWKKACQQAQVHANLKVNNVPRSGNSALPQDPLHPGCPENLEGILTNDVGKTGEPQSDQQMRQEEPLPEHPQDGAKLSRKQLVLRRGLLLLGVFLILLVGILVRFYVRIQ

P‐glycoprotein = conditions: in vitro; cited from earlier work
[1] = ulcerative colitis phase IIb/III, cited from earlier work
[2] = study 3, filgotinib treatment period

MATE2K, sequence (Q86VL8 1-566 isoform Q86VL8-3): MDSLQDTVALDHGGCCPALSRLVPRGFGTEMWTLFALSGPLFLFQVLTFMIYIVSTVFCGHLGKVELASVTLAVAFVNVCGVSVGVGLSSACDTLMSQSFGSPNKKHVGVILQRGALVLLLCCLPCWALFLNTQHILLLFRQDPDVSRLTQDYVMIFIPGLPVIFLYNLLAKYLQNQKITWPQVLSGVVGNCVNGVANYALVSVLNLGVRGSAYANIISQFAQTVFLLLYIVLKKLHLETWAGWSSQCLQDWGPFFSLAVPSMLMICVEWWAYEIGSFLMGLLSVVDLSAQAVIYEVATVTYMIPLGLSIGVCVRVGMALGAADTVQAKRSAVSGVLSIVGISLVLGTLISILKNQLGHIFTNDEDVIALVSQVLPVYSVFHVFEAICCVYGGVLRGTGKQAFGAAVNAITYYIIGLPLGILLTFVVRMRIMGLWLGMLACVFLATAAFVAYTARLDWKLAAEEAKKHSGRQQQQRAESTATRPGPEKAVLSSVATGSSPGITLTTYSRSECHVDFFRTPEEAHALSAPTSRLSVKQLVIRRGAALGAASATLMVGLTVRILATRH

In the case of `O=C(Nc1nc2cccc(-c3ccc(CN4CCS(=O)(=O)CC4)cc3)n2n1)C1CC1` [Filgotinib], the “inhibition of MATE2K (in words)” value (MATE2K; in vitro data) is reported as “may inhibit”, the “ratio of maximum unbound plasma concentration over in vitro IC50 against MATE2K” value (MATE2K; patients with rheumatoid arthritis) is reported as 0.44 and the “tolerability (in words)” value (Safety assessments; all three studies, alone or with the co‐administered drugs) is reported as “generally well‐tolerated”. The “subjects with AEs” value (Safety assessments; study 1, by treatment period, all grade 1, not related to study drug) was 7.7%, the “subjects with at least one graded laboratory abnormality” value (Safety assessments; study 1, by treatment period) was 15% and the “subjects with at least one graded laboratory abnormality” value (Safety assessments; study 2, by treatment period) was 14%. The “subjects with AEs” value (Safety assessments; study 3, by treatment period, all grade 1) was 8.3%, the “subjects with grade 3 decreased lymphocytes and neutrophils” value (Safety assessments; [2]) was 8.3% and the “subjects with grade 3 laboratory abnormalities” value (Safety assessments; [2]) was 25%. For the same molecule, the “subjects with grade 3 occult blood in urine” value (Safety assessments; [2]) was 17%, the “subjects with at least one graded laboratory abnormality” value (Safety assessments; [2]) was 75% and the “AE considered related to study drug (kind of AE)” value (Safety assessments; study 3, one subject, by treatment phase) was “headache”. For the same molecule, the “inhibition of MATE1” value (MATE1) was “inhibited”, the “substrate of P‐glycoprotein” value (P‐glycoprotein) was “substrates” and the “primary end point in the induction studies” value ([1]; 100 mg dose) was “did not meet the primary end point”. The “primary end points (clinical remission at week 10 and week 58)” value ([1]; 200 mg dose) was “met all the primary end points”.
